Laboratory results: patent US8999970B2, “Administration of an anti-obesity compound to individuals with renal impairment” (Arena Pharmaceuticals, Inc., priority 2010, dated 2015)

Experiments:
[1] = Clinical trial APD356-016: plasma and urine pharmacokinetics of lorcaserin, M1 and M5 after a 10 mg dose in subjects with renal impairment; details: for tmax: median; for Ae0-120 / fe0-120: urine
Description: The interaction of renal insufficiency with the pharmacokinetics, tolerability and safety of lorcaserin were evaluated in a formal PK study in subjects with renal impairment and in the populations studied in phase 2 and phase 3 clinical studies.
The pharmacokinetic properties of lorcaserin in subjects with varying degrees of renal impairment were evaluated in clinical trial APD356-016. At the time of study conduct and analysis, subjects were assigned to renal impairment groups based on creatinine clearance calculated using IDEAL body weight (Table 1). This calculation was used to avoid overestimation of creatinine clearance due to the excess body weight (overweight and obese subjects were enrolled in the trial). Summaries of pharmacokinetic properties by group assignment using creatinine clearance calculated using ACTUAL body weights are also provided in the sections that follow.
The FDA expects a reasonable margin between anticipated exposures and exposures that may produce toxicity. A reasonable margin can vary depending on the expected toxicity, but generally is an order of magnitude (10 times), but can sometimes be less for mild toxicity.
Table 13. Summary of Plasma Concentrations (ng/mL) of HSO3-APD356 Metabolite over Time by Group: Severe Renal Impairment Not Receiving Dialysis (see Table 13 next page)
Subject number 3140-505 was on dialysis and grouped in the end stage renal disease group.

[2] = tested on: panel of receptors, ion channels and transporters; experiment: Pharmacological activity of metabolites at a panel of receptors, ion channels and transporters
[3] = Preclinical toxicology: M1 and M5 pharmacokinetics after oral administration of lorcaserin, 52 wk, rats
[4] = 10 mg dose, Mild, actual BW groups
[5] = 10 mg dose, Mild, ideal BW groups
[6] = 10 mg dose, Moderate, actual BW groups
[7] = 10 mg dose, Moderate, ideal BW groups
[8] = 10 mg dose, Normal, actual BW groups
[9] = 10 mg dose, Normal, ideal BW groups
[10] = 10 mg dose, Severe N = 1, actual BW groups
[11] = 10 mg dose, Severe, ideal BW groups
[12] = ESRD, 10 mg QD Authentic, Day 1
[13] = Mild, 10 mg QD Authentic, Day 1
[14] = Moderate, 10 mg QD Authentic, Day 1
[15] = Normal, 10 mg QD Authentic, Day 1
[16] = Severe, 10 mg QD Authentic, Day 1
[17] = lorcaserin 10 mg/kg/day oral, F
[18] = lorcaserin 10 mg/kg/day oral, M
[19] = lorcaserin 30 mg/kg/day oral, F
[20] = lorcaserin 30 mg/kg/day oral, M
[21] = lorcaserin 100 mg/kg/day oral, F
[22] = lorcaserin 100 mg/kg/day oral, M

SMILES: C[C@H]1CN(C(=O)O[C@@H]2O[C@H](C(=O)O)[C@@H](O)[C@H](O)[C@H]2O)CCc2ccc(Cl)cc21 [Compound M5, N-carbamoyl glucuronide of lorcaserin]
- % AUC Extrapolated ([1]; 10 mg dose, ESRD (Period 1)): 14.7%
- AUC0-inf ([1]; 10 mg dose, ESRD (Period 1)): 11200 ng·h/mL
- AUC(0-t) ([1]; 10 mg dose, ESRD (Period 1)): 9530 ng·h/mL
- AUClast ([1]; 10 mg dose, ESRD (Period 1)): 9530 ng·h/mL
- Cmax ([1]; 10 mg dose, ESRD (Period 1)): 300 ng/mL
- MRTinf ([1]; 10 mg dose, ESRD (Period 1)): 38.6 h
- t1/2z ([1]; 10 mg dose, ESRD (Period 1)): 25.7 h
- tmax ([1]; 10 mg dose, ESRD (Period 1)): 3.00 h
- % AUC Extrapolated ([1]; 10 mg dose, ESRD (Period 2)): 26.9%
- AUC0-inf ([1]; 10 mg dose, ESRD (Period 2)): 11900 ng·h/mL
- AUC(0-t) ([1]; 10 mg dose, ESRD (Period 2)): 8240 ng·h/mL
- AUClast ([1]; 10 mg dose, ESRD (Period 2)): 8240 ng·h/mL
- Cmax ([1]; 10 mg dose, ESRD (Period 2)): 231 ng/mL
- MRTinf ([1]; 10 mg dose, ESRD (Period 2)): 59.1 h
- t1/2z ([1]; 10 mg dose, ESRD (Period 2)): 40.5 h
- tmax ([1]; 10 mg dose, ESRD (Period 2)): 3.10 h
- % AUC0-inf Extrapolated [1, 4]: 14.5%
- AUC0-inf [1, 4]: 1040 ng·h/mL
- AUClast [1, 4]: 914 ng·h/mL
- Cmax [1, 4]: 91.9 ng/mL
- MRTinf [1, 4]: 16.6 h
- T1/2z [1, 4]: 13.5 h
- tmax [1, 4]: 2 h
- % AUC0-inf Extrapolated [1, 5]: 17.7%
- AUC0-inf [1, 5]: 583 ng·h/mL
- AUC(0-t) [1, 5]: 482 ng·h/mL
- Cmax [1, 5]: 62.4 ng/mL
- MRTinf [1, 5]: 13.5 h
- T1/2z [1, 5]: 10.7 h
- tmax [1, 5]: 2.00 h
- % AUC0-inf Extrapolated [1, 6]: 12.1%
- AUC0-inf [1, 6]: 1700 ng·h/mL
- AUClast [1, 6]: 1510 ng·h/mL
- Cmax [1, 6]: 134 ng/mL
- MRTinf [1, 6]: 18.5 h
- T1/2z [1, 6]: 14.4 h
- tmax [1, 6]: 2 h
- % AUC0-inf Extrapolated [1, 7]: 15.6%
- AUC0-inf [1, 7]: 1100 ng·h/mL
- AUC(0-t) [1, 7]: 944 ng·h/mL
- Cmax [1, 7]: 96.4 ng/mL
- MRTinf [1, 7]: 18.5 h
- T1/2z [1, 7]: 15.4 h
- tmax [1, 7]: 2.00 h
- % AUC0-inf Extrapolated [1, 8]: 23.1%
- AUC0-inf [1, 8]: 498 ng·h/mL
- AUClast [1, 8]: 381 ng·h/mL
- Cmax [1, 8]: 66.2 ng/mL
- MRTinf [1, 8]: 14.2 h
- T1/2z [1, 8]: 11.7 h
- tmax [1, 8]: 2 h
- % AUC0-inf Extrapolated [1, 9]: 26.3%
- AUC0-inf [1, 9]: 475 ng·h/mL
- AUC(0-t) [1, 9]: 345 ng·h/mL
- Cmax [1, 9]: 70.5 ng/mL
- MRTinf [1, 9]: 14.6 h
- T1/2z [1, 9]: 12.2 h
- tmax [1, 9]: 1.00 h
- % AUC0-inf Extrapolated [1, 10]: 2.59%
- AUC0-inf [1, 10]: 6480 ng·h/mL
- AUClast [1, 10]: 6310 ng·h/mL
- Cmax [1, 10]: 214 ng/mL
- MRTinf [1, 10]: 33.4 h
- T1/2z [1, 10]: 23.1 h
- tmax [1, 10]: 4 h
- % AUC0-inf Extrapolated [1, 11]: 8.46%
- AUC0-inf [1, 11]: 2470 ng·h/mL
- AUC(0-t) [1, 11]: 2290 ng·h/mL
- Cmax [1, 11]: 153 ng/mL
- MRTinf [1, 11]: 20.0 h
- T1/2z [1, 11]: 14.9 h
- tmax [1, 11]: 2.50 h
- Ae0-120 [1, 4]: 7470 µg
- fe0-120 [1, 4]: 0.417
- Ae0-120 [1, 5]: 7160 µg
- fe0-120 [1, 5]: 0.399
- Ae0-120 [1, 6]: 6480 µg
- fe0-120 [1, 6]: 0.361
- Ae0-120 [1, 7]: 8000 µg
- fe0-120 [1, 7]: 0.446
- Ae0-120 [1, 8]: 8210 µg
- fe0-120 [1, 8]: 0.458
- Ae0-120 [1, 9]: 8540 µg
- fe0-120 [1, 9]: 0.476
- Ae0-120 [1, 10]: 6720 µg
- fe0-120 [1, 10]: 0.375
- Ae0-120 [1, 11]: 6300 µg
- fe0-120 [1, 11]: 0.351
- Amount in the body cleared during a standard 4-hour hemodialysis procedure ([1]; ESRD): Approximately 18%
- Hemodialysis extraction ratio ([1]; ESRD): 18.4%
- Removal by hemodialysis ([1]; ESRD): partially removed
- AUC24 hr [1, 12]: 9530 ng·h/mL
- Cmax [1, 12]: 300 ng/mL
- t1/2 [1, 12]: 25.7 h
- AUC24 hr [1, 13]: 482 ng·h/mL
- Cmax [1, 13]: 62.4 ng/mL
- t1/2 [1, 13]: 10.7 h
- AUC24 hr [1, 14]: 944 ng·h/mL
- Cmax [1, 14]: 96.4 ng/mL
- t1/2 [1, 14]: 15.4 h
- AUC24 hr [1, 15]: 345 ng·h/mL
- Cmax [1, 15]: 70.5 ng/mL
- t1/2 [1, 15]: 12.2 h
- AUC24 hr [1, 16]: 2290 ng·h/mL
- Cmax [1, 16]: 153 ng/mL
- t1/2 [1, 16]: 14.9 h
- Exposure (Geometric Mean Ratio for AUCinf) increase compared to normal subjects ([1]; mild (CLcr=51-80 mL/min)): 1.2 fold
- Terminal half-life prolonged by ([1]; mild renal impairment): 0%
- Exposure (Geometric Mean Ratio for AUCinf) increase compared to normal subjects ([1]; moderate (CLcr=31-50 mL/min)): 2.3 fold
- Terminal half-life prolonged by ([1]; moderate renal impairment): 26%
- Fractional excretion ([1]; normal renal function): 48%
- Exposure (Geometric Mean Ratio for AUCinf) increase compared to normal subjects ([1]; severe (CLcr=5-30 mL/min)): 5.2 fold
- Fractional excretion ([1]; severe renal impairment): 35%
- Terminal half-life prolonged by ([1]; severe renal impairment): 22%
- Highest individual AUC0-inf in a subject not on hemodialysis ([1]; subject 3140-010, creatinine clearance 9.9 mL/min): 6480 ng·h/mL
- Highest observed Cmax in the clinical study ([1]; subject with ESRD (#3140-505)): 520 ng/mL
- Highest AUC0-inf overall ([1]; subject with ESRD on hemodialysis): 20800 ng·h/mL
- Activity at serotonin receptors or at a panel of more than 60 GPCRs, transporters and ion channels [2]: neither metabolite is active
- Pharmacological activity at all receptors, transporters and ion channels tested to date [2]: pharmacologically inactive
- AUC0-inf [3, 17]: 349 ng·h/mL
- AUClast [3, 17]: 273 ng·h/mL
- Cmax [3, 17]: 53.8 ng/mL
- tmax [3, 17]: 0.5 h
- AUC0-inf [3, 18]: 602 ng·h/mL
- AUClast [3, 18]: 550 ng·h/mL
- Cmax [3, 18]: 178 ng/mL
- tmax [3, 18]: 1.0 h
- AUC0-inf [3, 19]: 1960 ng·h/mL
- AUClast [3, 19]: 1620 ng·h/mL
- Cmax [3, 19]: 337 ng/mL
- tmax [3, 19]: 1.0 h
- AUC0-inf [3, 20]: 3100 ng·h/mL
- AUClast [3, 20]: 3070 ng·h/mL
- Cmax [3, 20]: 559 ng/mL
- tmax [3, 20]: 0.5 h
- AUC0-inf [3, 21]: 12800 ng·h/mL
- AUClast [3, 21]: 11100 ng·h/mL
- Cmax [3, 21]: 1200 ng/mL
- tmax [3, 21]: 2.0 h
- AUC0-inf [3, 22]: 16500 ng·h/mL
- AUClast [3, 22]: 14900 ng·h/mL
- Cmax [3, 22]: 2030 ng/mL
- tmax [3, 22]: 0.5 h
